The source made the active and inactive calls. The rule behind the calls is not given here.
What was measured:
[1] = molecular target: 5-hydroxytryptamine receptor 7 (Homo sapiens, UniProt P34969); assay: GPCRScan assay: inhibition of 5-HT7A; design: radioligand conc. used [nm] 5.0 – 6.0, parental cells Stable HEK
[2] = molecular target: Neutrophil collagenase (Homo sapiens) (UniProt P22894); assay: MMP-8 (h) Protease assay; details: Compound concentration 10.0 uM
[3] = molecular target: Prothrombin (Homo sapiens) (UniProt P00734); assay: Thrombin (h) Protease assay; details: Compound concentration 10.0 uM
[4] = molecular target: Histamine H3 receptor (Homo sapiens) (UniProt Q9Y5N1); details: Compound concentration 10.0 uM
Chain of Histamine H3 receptor (Homo sapiens) (Q9Y5N1 whole entry): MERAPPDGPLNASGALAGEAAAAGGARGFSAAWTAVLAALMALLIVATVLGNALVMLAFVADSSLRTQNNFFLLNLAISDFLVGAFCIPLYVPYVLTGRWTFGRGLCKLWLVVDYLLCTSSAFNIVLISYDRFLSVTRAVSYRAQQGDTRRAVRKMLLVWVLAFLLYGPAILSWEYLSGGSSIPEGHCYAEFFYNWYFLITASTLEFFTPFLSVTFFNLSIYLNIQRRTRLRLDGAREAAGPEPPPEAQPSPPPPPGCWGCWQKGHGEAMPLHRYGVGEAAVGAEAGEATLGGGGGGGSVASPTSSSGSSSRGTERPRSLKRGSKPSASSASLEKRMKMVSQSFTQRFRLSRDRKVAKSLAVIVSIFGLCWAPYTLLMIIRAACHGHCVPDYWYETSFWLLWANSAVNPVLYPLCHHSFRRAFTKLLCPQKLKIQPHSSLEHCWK

[5] = molecular target: Cathepsin S (Homo sapiens) (UniProt P25774); assay: Cathepsin S (h) Protease assay; details: Compound concentration 10.0 uM
Chain of Cathepsin S (Homo sapiens) (P25774 115-331 limits assumed): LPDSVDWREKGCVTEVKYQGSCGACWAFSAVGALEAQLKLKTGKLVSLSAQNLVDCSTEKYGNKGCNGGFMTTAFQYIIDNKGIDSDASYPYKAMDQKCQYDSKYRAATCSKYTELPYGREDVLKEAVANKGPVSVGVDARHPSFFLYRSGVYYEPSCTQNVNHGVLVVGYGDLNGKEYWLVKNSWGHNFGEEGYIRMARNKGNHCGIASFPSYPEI

[6] = molecular target: Beta-2 adrenergic receptor (Homo sapiens) (UniProt P07550); details: Compound concentration 10.0 uM
Chain of Beta-2 adrenergic receptor (Homo sapiens) (P07550 whole entry, looked up): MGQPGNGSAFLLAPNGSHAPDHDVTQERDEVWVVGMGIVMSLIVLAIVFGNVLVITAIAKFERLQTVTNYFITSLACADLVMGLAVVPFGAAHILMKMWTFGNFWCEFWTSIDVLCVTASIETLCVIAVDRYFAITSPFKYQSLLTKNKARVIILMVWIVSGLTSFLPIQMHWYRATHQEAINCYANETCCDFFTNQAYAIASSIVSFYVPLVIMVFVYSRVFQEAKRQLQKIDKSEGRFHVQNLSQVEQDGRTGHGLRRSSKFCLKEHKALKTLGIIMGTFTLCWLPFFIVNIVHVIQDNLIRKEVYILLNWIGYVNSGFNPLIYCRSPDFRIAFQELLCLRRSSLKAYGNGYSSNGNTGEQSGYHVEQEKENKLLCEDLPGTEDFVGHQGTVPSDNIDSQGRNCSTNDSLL

[7] = molecular target: T1, Mucosa-associated lymphoid tissue lymphoma translocation protein 1 (Homo sapiens, UniProt Q9UDY8); assay: IL-2 – PMA + anti-CD28 + 50% Rat whole blood; type: tissue-based; details: target entry is the homologue from another species
T1 sequence (Q9UDY8 whole entry): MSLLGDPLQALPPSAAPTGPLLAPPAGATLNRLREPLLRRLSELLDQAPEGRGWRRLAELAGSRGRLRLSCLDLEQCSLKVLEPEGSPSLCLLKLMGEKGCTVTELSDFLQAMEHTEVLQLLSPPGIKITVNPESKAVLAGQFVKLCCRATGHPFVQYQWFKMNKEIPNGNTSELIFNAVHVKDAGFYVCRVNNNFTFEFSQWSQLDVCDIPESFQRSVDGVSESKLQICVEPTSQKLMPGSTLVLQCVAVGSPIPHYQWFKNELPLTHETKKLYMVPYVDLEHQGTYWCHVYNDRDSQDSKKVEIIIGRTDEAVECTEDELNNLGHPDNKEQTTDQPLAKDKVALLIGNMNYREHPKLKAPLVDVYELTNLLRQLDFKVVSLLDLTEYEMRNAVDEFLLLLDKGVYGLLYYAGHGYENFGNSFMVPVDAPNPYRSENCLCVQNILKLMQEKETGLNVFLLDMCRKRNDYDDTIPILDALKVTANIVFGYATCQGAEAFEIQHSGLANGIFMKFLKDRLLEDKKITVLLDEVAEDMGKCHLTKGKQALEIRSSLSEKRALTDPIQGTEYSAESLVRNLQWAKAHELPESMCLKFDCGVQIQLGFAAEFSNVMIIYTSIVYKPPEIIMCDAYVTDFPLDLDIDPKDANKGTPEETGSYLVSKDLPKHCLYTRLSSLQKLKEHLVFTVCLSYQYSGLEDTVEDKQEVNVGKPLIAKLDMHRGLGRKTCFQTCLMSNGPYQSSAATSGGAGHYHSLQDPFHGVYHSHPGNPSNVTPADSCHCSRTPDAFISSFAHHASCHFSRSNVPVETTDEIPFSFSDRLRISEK

[8] = molecular target: T1, Mucosa-associated lymphoid tissue lymphoma translocation protein 1; assay: IL-2 – PMA + anti-CD28 + 50% Human whole blood; type: tissue-based
[9] = molecular target: Chymase (Homo sapiens) (UniProt P23946); assay: Chymase (h) Protease assay; details: Compound concentration 10.0 uM
Chain of Chymase (Homo sapiens) (P23946 whole entry): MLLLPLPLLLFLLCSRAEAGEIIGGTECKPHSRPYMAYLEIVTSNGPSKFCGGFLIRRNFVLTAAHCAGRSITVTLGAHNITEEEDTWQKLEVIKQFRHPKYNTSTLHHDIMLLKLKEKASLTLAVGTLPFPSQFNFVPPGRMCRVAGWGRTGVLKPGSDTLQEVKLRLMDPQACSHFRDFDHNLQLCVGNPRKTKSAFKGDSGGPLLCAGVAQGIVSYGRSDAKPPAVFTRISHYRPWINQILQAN

[10] = molecular target: T1, Mucosa-associated lymphoid tissue lymphoma translocation protein 1; assay: Human biochemical (TR-FRET) assay (low salt)

Chain of Neutrophil collagenase (Homo sapiens) (P22894 101-467 limits assumed): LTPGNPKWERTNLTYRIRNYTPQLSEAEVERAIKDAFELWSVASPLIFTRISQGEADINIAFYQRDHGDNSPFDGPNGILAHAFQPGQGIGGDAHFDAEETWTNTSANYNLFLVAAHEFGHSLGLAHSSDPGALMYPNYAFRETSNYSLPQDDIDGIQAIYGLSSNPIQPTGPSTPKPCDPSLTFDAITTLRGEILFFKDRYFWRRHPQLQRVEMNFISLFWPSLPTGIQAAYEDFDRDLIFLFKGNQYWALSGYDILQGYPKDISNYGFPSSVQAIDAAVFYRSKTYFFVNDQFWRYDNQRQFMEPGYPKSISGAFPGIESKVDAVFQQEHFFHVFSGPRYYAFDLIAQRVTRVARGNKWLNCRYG
Chain of 5-hydroxytryptamine receptor 7 (P34969 whole entry): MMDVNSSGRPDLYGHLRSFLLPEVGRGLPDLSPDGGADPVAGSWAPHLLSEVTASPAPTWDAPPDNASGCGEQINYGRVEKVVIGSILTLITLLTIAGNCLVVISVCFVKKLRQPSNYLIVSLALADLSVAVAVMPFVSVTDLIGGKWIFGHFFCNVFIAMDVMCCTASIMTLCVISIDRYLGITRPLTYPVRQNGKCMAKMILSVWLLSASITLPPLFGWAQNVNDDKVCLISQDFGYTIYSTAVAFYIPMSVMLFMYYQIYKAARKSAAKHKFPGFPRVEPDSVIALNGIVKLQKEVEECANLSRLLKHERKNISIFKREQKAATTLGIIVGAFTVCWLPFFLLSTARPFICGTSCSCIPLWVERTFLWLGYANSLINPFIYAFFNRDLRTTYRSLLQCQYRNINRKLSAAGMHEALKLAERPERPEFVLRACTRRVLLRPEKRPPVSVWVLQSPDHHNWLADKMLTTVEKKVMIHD

SMILES | Ki [1] [µM] | inhibition [2] [%] | inhibition [3] [%] | inhibition [4] [%] | inhibition [5] [%] | inhibition [6] [%] | IC50 [7] | IC50 [8] | inhibition [9] [%] | IC50 [10]
CO[C@@H](C)c1c(Nc2ccc([C@@H](N(C)C(=O)C3CCS(=O)(=O)CC3)C(F)(F)F)cc2)cnc2cc(Cl)nn12 [NVS-MALT1-C] | 10 | – | – | – | – | – | – | – | – | –
CO[C@@H](C)c1c(Nc2ccc([C@H](N(C)C(=O)C3CCS(=O)(=O)CC3)C(F)(F)F)cc2)cnc2cc(Cl)nn12 [NVS-MALT1] | – | 0 | 0 | -5.74 | 7 | 26.7 | 130 nM (active) | 200 nM (active) | -3 | 18 nM (active)
